This is an account of results in patent US10272117B2, “Methods of using an activator of cereblon for neural cell expansion and the treatment of central nervous system disorders” (Celgene Corporation, priority 2014, dated 2019).

One series has as its system zebrafish embryos. The series is described as follows: Immunostaining of neurons, proliferating cells, glia and serotonin-positive cells in zebrafish. Type of series: in vivo. The conditions noted are these: for numbers of serotonin-positive cells / numbers of radial glia cells: 54-55 hpf; for numbers of radial glia cells: Zrf-2. The procedure: Antibody staining of early neurons of zebrafish was performed by the following technique. The embryos 24 to 28 hours after fertilization were fixed at 4° C. for 12 hours in a 4% paraformaldehyde/phosphate buffer (pH 8.0). After washing four times with phosphate buffer, where each wash was performed for 15 minutes, blocking was carried out at normal temperature for one hour in 5% newborn goat serum dissolved in 0.5% Triton X-100/phosphate buffer. Primary antibody reaction was carried out using a monoclonal anti-acetylated tubulin antibody diluted at 1:1000 in the same solution at 4° C. for 12 hours. Then, after washing the embryos similarly with phosphate buffer, secondary antibody reaction was carried out using an anti-mouse antibody conjugated with Alexa Fluoro 488 (Molecular Probes) under the same conditions as those applied in the primary antibody reaction. The embryos were then washed with phosphate buffer and transparentized in 30%/50%/70% glycerol (dissolved in phosphate buffer), and then observed with a fluorescent microscope under excitation at 488 nm.
Two-days-old zebrafish were used (for glia cell staining and serotonin-producing cell staining, zebrafish 56 hours and 49 hours after fertilization were used, respectively). Zebrafish were fixed with 4% paraformaldehyde (PFA) and then washed with phosphate buffer (PBS), followed by treatment with 10 μg/ml protease K for partial digestion of the epidermis. After the digestion reaction, the zebrafish were washed with PBST (PBS+0.5% Triton X-100) for 20 minutes and then fixed with PFA again. The fixed zebrafish were washed with PBST at room temperature for one hour, followed by blocking using PBST+5% goat serum. The resulting specimens were reacted with a monoclonal anti-glia antibody (zrf-1/zrf-2) or a rabbit anti-serotonin antibody at 4° C. overnight (12 to 18 hours). Subsequently, the specimens were washed with PBST+5% goat serum for one hour at room temperature, and secondary antibody reaction was carried out by substituting the antibody for a goat anti-mouse IgG antibody (Cy-2 conjugate for glia cell staining) or a goat anti-rabbit IgG antibody (Cy-5 conjugate for serotonin-producing cell staining) at 4° C. overnight (12 to 18 hours). Subsequently, the specimens were washed with PBST at room temperature for one hour. After washing, PBST was replaced by 30%, 50%, and 70% glycerol/PBS, and the whole zebrafish were mounted on glass slides to obtain preparations. Fluorescence was observed under excitation wavelength of Cy-2 and Cy-5, and the distribution of the glia cells or the serotonin-producing cells was recorded. Glia cells were observed from the lateral side of zebrafish, while the serotonin-producing cells were photographed from the dorsal side in order to observe the distribution of the cells along the midline.
Numbers of primary neurons and proliferating cells were analyzed by immunostaining in untreated and Ikaros-knockdown zebrafish embryos at 27 hpf. FIGS. 17A and 17D show the primary neurons in the CNS of the untreated and the Ikaros-knockdown zebrafish embryos, respectively, at 27 hpf by immunostaining with anti-acetylated tubulin antibody. FIGS. 17B and 17E show the proliferating cells in the CNS of the untreated and the Ikaros-knockdown zebrafish embryos, respectively, at 27 hpf by immunostaining with anti-phospho-histone H3 antibodies. […] Global distribution of the primary neurons was normal as shown (scale bar: 50 μm).
The number of phosphorylated histone H3-positive cells was counted in a stacked focal plane of laser confocal microscope at 27 hpf. The average number of the H3-positive cells in the telencephalon, the diencephalon, and the midbrain was statistically compared between the untreated and the Ikaros-knockdown embryos (n=3 in each experiment).
The numbers of radial glial cells and matured neurons were analyzed in untreated and CRBN-overexpressing zebrafish embryos. […]

A further series deals with zebrafish. The series is described as follows: Resistance to thalidomide in brain development (brain thickness to body length). The class given is in vivo. The procedure: To analyze the functional relationship between thalidomide and BRD7, brain development of BRD7-knockdown zebrafish treated with thalidomide was examined and compared with that of normal zebrafish treated with thalidomide. […] FIGS. 12A and 12B show the normal zebrafish treated with 400 μM thalidomide. FIGS. 12C and 12D show the BRD7-knockdown zebrafish treated with 400 μM thalidomide. FIGS. 12A′ and 12C′ show the brain regions of the normal zebrafish treated with 400 μM thalidomide. FIGS. 12B′ and 12D′ show the brain regions of the BRD7-knockdown zebrafish treated with 400 μM thalidomide. […] The percentages of brain thickness to body length in the normal and the BRD7-knockdown zebrafish, with or without thalidomide treatments were also measured. […] The brain size of the BRD7-knockdown larvae incubated in thalidomide is 98.8% of that of the BRD7-knockdown larvae incubated in the absence of thalidomide.

“5′-AGAGCTGTAGCTGGTTCCCCATTTC-3′ (all phosphorodiamidate morpholino (PMO)) [CRBN-knockdown, 25-mer antisense morpholino oligonucleotide (AMO) used for the CRBN gene knockdown, reference compound]”: in the series on zebrafish embryos, the “numbers of serotonin-positive cells” value is reported as “decreased” and the “numbers of radial glia cells” value is “decreased”.

Consider “5′-TGTGTTTCTTGTGCTTTTTGCCCAT-3′ (all phosphorodiamidate morpholino (PMO)) [BRD7-knockdown, 25-mer antisense morpholino oligonucleotide (AMO) used for the BRD7 gene knockdown]”, for which the “brain size relative to normal larvae” value in the series on zebrafish (in 400 μM of thalidomide, n=12) is reported as 140.0%; in the series with zebrafish (normal E3 medium, without thalidomide treatment) it was 120.7%. In addition, the “brain development of BRD7-knockdown larvae” value in the series on zebrafish (in thalidomide solution (400 μM)) is on record as “developed almost normally”.

“5′-TTCCTGTGCCTCCTCAGTCTCCATC-3′ (all phosphorodiamidate morpholino (PMO)) [Ikaros-knockdown, 25-mer antisense morpholino oligonucleotide (AMO) used for the Ikaros gene knockdown]”: the “number of the primary neurons in the CNS” value in the series on zebrafish embryos (27 hpf, anti-acetylated tubulin) was “increased”. Further, the “number of the proliferating cells in the CNS” value in the series on zebrafish embryos (27 hpf, anti-phospho-histone H3) is “increased”. Also, the “number of H3-positive proliferating cells in telencephalon, diencephalon and midbrain” value in the series with zebrafish embryos (27 hpf, n=3) is “increased”. In the series on zebrafish embryos, the “numbers of serotonin-positive cells” value is on record as “increased” and the “numbers of radial glia cells” value is given as “increased”.
